*1 amine or outer side, *2 acyl side, *3 side chain or, on linkers, in order; H or OH if unused. Where a SMILES comes first, the peptide text is derived from it. Side-chain parts run from the residue outwards. γGlu = O=C(O)[C@H](CCC(=O)[*:2])N[*:1]
target: T1, glucagon receptor (Homo sapiens, UniProt P47871); experiment: Assay (I) Glucagon activity (cAMP biosensor, FLIPR); format: cell-based; conditions: HEK-293 cells with cloned glucagon receptor and cAMP biosensor; end point after 6 minutes
T1 construct: expressed in transfected cells
T1 sequence (P47871 26-477): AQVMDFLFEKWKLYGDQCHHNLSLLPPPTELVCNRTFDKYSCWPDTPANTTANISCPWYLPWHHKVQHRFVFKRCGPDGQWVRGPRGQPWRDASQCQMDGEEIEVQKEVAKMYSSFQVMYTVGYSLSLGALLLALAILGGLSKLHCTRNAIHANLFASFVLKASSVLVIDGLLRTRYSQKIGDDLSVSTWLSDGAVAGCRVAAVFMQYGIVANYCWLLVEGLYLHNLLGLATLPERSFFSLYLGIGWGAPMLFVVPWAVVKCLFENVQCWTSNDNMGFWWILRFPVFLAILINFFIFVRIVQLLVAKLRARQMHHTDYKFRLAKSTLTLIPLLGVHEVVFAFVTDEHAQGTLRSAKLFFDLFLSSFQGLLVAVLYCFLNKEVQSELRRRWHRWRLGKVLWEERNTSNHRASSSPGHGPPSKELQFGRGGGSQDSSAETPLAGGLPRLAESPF
Procedure, shortened: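 HEK-293 cells expressing glucagon receptor with membrane cAMP biosensor (ACTOne), calcium-dye loaded with probenecid and a PDE inhibitor.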

EC50 [nM]	Compound
0.027	CC(=O)N[C@@H](CCC(=O)N[C@@H](CCC(=O)N[C@@H](CCC(=O)N[C@@H](CCC(=O)NCCCC[C@H](NC(=O)[C@@H](NC(=O)[C@H](Cc1ccccc1)NC(=O)[C@H](CCC(=O)O)NC(=O)[C@H](CCC(N)=O)NC(=O)[C@H](C)NC(=O)[C@H](CCCNC(=N)N)NC(=O)[C@H](CCCNC(=N)N)NC(=O)[C@H](CO)NC(=O)[C@H](CCC(=O)O)NC(=O)[C@H](CC(C)C)NC(=O)[C@H](Cc1ccc(O)cc1)NC(=O)[C@H](CCCCN)NC(=O)[C@H](CO)NC(=O)[C@@H](NC(=O)[C@H](CC(=O)O)NC(=O)[C@H](CO)NC(=O)[C@@H](NC(=O)[C@H](Cc1ccccc1)NC(=O)[C@@H](NC(=O)CNC(=O)[C@H](CCC(N)=O)NC(=O)[C@H](CO)NC(=O)[C@@H](N)Cc1c[nH]cn1)[C@@H](C)O)[C@@H](C)O)C(C)C)C(C)C)C(=O)N[C@@H](Cc1c[nH]c2ccccc12)C(=O)N[C@@H](CC(C)C)C(=O)N[C@@H](CC(C)C)C(=O)N[C@@H](CO)C(=O)N[C@H](C(=O)O)[C@@H](C)O)C(=O)O)C(=O)O)C(=O)O)C(=O)O [Example 45, N^ε24-[(4S)-4-[[(4S)-4-[[(4S)-4-[[(4S)-4-acetamido-4-carboxybutanoyl]amino]-4-carboxybutanoyl]amino]-4-carboxybutanoyl]amino]-4-carboxybutanoyl]-[Val^10,Glu^15,Glu^21,Lys^24,Leu^27,Ser^28]-Glucagon] (H-HSQGTFTSDVSKYLESRRAQEFVK([γGlu-γGlu-γGlu-γGlu-Ac])WLLST-OH)
0.009	CC(=O)N[C@@H](CCC(=O)N[C@@H](CCC(=O)N[C@@H](CCC(=O)N[C@@H](CCC(=O)NCCCC[C@H](NC(=O)[C@@H](NC(=O)[C@H](Cc1ccccc1)NC(=O)[C@H](CCC(=O)O)NC(=O)[C@H](C)NC(=O)[C@H](C)NC(=O)[C@H](CCCNC(=N)N)NC(=O)[C@H](CCCNC(=N)N)NC(=O)[C@@H](NC(=O)[C@H](CC(=O)O)NC(=O)[C@H](CC(C)C)NC(=O)[C@H](Cc1ccc(O)cc1)NC(=O)[C@H](CCCCN)NC(=O)[C@H](CO)NC(=O)[C@H](Cc1ccc(O)cc1)NC(=O)[C@H](CC(=O)O)NC(=O)[C@H](CO)NC(=O)[C@@H](NC(=O)[C@H](Cc1ccccc1)NC(=O)[C@@H](NC(=O)CNC(=O)[C@H](Cc1c[nH]cn1)NC(=O)[C@H](C)NC(=O)[C@@H](N)Cc1c[nH]cn1)[C@@H](C)O)[C@@H](C)O)C(C)C)C(C)C)C(=O)N[C@@H](Cc1c[nH]c2ccccc12)C(=O)N[C@@H](CC(C)C)C(=O)N[C@@H](CC(C)C)C(=O)N[C@@H](CO)C(=O)N[C@H](C(=O)O)[C@@H](C)O)C(=O)O)C(=O)O)C(=O)O)C(=O)O [Example 47, N^ε24-[(4S)-4-[[(4S)-4-[[(4S)-4-[[(4S)-4-acetamido-4-carboxybutanoyl]amino]-4-carboxybutanoyl]amino]-4-carboxybutanoyl]amino]-4-carboxybutanoyl]-[Ala^2,His^3,Val^16,Ala^20,Glu^21,Lys^24,Leu^27,Ser^28]-Glucagon] (H-HAHGTFTSDYSKYLDVRRAAEFVK([γGlu-γGlu-γGlu-γGlu-Ac])WLLST-OH)
0.054	CC(=O)N[C@@H](CCC(=O)N[C@@H](CCC(=O)N[C@@H](CCC(=O)N[C@@H](CCC(=O)NCCCC[C@H](NC(=O)[C@@H](NC(=O)[C@H](Cc1ccccc1)NC(=O)[C@H](CCC(=O)O)NC(=O)[C@H](C)NC(=O)[C@H](C)NC(=O)[C@H](CCCNC(=N)N)NC(=O)[C@H](CCCNC(=N)N)NC(=O)[C@@H](NC(=O)[C@H](CC(=O)O)NC(=O)[C@H](CC(C)C)NC(=O)[C@H](Cc1ccc(O)cc1)NC(=O)[C@H](CCCCN)NC(=O)[C@H](CO)NC(=O)[C@H](Cc1ccc(O)cc1)NC(=O)[C@H](CC(=O)O)NC(=O)[C@H](CO)NC(=O)[C@@H](NC(=O)[C@H](Cc1ccccc1)NC(=O)[C@@H](NC(=O)CNC(=O)[C@H](CCC(N)=O)NC(=O)CNC(=O)[C@@H](N)Cc1c[nH]cn1)[C@@H](C)O)[C@@H](C)O)C(C)C)C(C)C)C(=O)N[C@@H](Cc1c[nH]c2ccccc12)C(=O)N[C@@H](CC(C)C)C(=O)N[C@@H](CC(C)C)C(=O)N[C@@H](CO)C(=O)N[C@H](C(=O)O)[C@@H](C)O)C(=O)O)C(=O)O)C(=O)O)C(=O)O [Example 49, N^ε24-[(4S)-4-[[(4S)-4-[[(4S)-4-[[(4S)-4-acetamido-4-carboxybutanoyl]amino]-4-carboxybutanoyl]amino]-4-carboxybutanoyl]amino]-4-carboxybutanoyl]-[Gly^2,Val^16,Ala^20,Glu^21,Lys^24,Leu^27,Ser^28]-Glucagon] (H-HGQGTFTSDYSKYLDVRRAAEFVK([γGlu-γGlu-γGlu-γGlu-Ac])WLLST-OH)
0.153	CC(=O)N[C@@H](CCC(=O)N[C@@H](CCC(=O)N[C@@H](CCC(=O)N[C@@H](CCC(=O)NCCCC[C@H](NC(=O)[C@@H](NC(=O)[C@H](Cc1ccccc1)NC(=O)[C@H](CCC(=O)O)NC(=O)[C@H](C)NC(=O)[C@H](C)NC(=O)[C@H](CCCNC(=N)N)NC(=O)[C@H](CCCNC(=N)N)NC(=O)[C@@H](NC(=O)[C@H](CC(=O)O)NC(=O)[C@H](CC(C)C)NC(=O)[C@H](Cc1ccc(O)cc1)NC(=O)[C@H](CCCCN)NC(=O)[C@H](CO)NC(=O)[C@@H](NC(=O)[C@H](CC(=O)O)NC(=O)[C@H](CO)NC(=O)[C@@H](NC(=O)[C@H](Cc1ccccc1)NC(=O)[C@@H](NC(=O)CNC(=O)[C@H](Cc1c[nH]cn1)NC(=O)CNC(=O)[C@@H](N)Cc1c[nH]cn1)[C@@H](C)O)[C@@H](C)O)C(C)C)C(C)C)C(C)C)C(=O)N[C@@H](Cc1c[nH]c2ccccc12)C(=O)N[C@@H](CC(C)C)C(=O)N[C@@H](CC(C)C)C(=O)N[C@@H](CO)C(=O)N[C@H](C(=O)O)[C@@H](C)O)C(=O)O)C(=O)O)C(=O)O)C(=O)O [Example 50, N^ε24-[(4S)-4-[[(4S)-4-[[(4S)-4-[[(4S)-4-acetamido-4-carboxybutanoyl]amino]-4-carboxybutanoyl]amino]-4-carboxybutanoyl]amino]-4-carboxybutanoyl]-[Gly^2,His^3,Val^10,Val^16,Ala^20,Glu^21,Lys^24,Leu^27,Ser^28]-Glucagon] (H-HGHGTFTSDVSKYLDVRRAAEFVK([γGlu-γGlu-γGlu-γGlu-Ac])WLLST-OH)
0.007	CC(=O)N[C@@H](CCC(=O)N[C@@H](CCC(=O)N[C@@H](CCC(=O)N[C@@H](CCC(=O)NCCCC[C@H](NC(=O)[C@@H](NC(=O)[C@H](CO)NC(=O)[C@H](CC(C)C)NC(=O)[C@H](CC(C)C)NC(=O)[C@H](Cc1c[nH]c2ccccc12)NC(=O)[C@H](CCC(N)=O)NC(=O)[C@@H](NC(=O)[C@H](Cc1ccccc1)NC(=O)[C@H](CC(=O)O)NC(=O)[C@H](CCC(N)=O)NC(=O)[C@H](C)NC(=O)[C@H](CCCNC(=N)N)NC(=O)[C@H](CCCNC(=N)N)NC(=O)[C@H](CO)NC(=O)[C@H](CC(=O)O)NC(=O)[C@H](CC(C)C)NC(=O)[C@H](Cc1ccc(O)cc1)NC(=O)[C@H](CCCCN)NC(=O)[C@H](CO)NC(=O)[C@H](Cc1ccc(O)cc1)NC(=O)[C@H](CC(=O)O)NC(=O)[C@H](CO)NC(=O)[C@@H](NC(=O)[C@H](Cc1ccccc1)NC(=O)[C@@H](NC(=O)CNC(=O)[C@H](CCC(N)=O)NC(=O)[C@H](CO)NC(=O)[C@@H](N)Cc1c[nH]cn1)[C@@H](C)O)[C@@H](C)O)C(C)C)[C@@H](C)O)C(=O)O)C(=O)O)C(=O)O)C(=O)O)C(=O)O [Example 51, N^α([Leu^27,Ser^28]-Glucagonyl)-N^ε[(4S)-4-[[(4S)-4-[[(4S)-4-[[(4S)-4-acetamido-4-carboxybutanoyl]amino]-4-carboxybutanoyl]amino]-4-carboxybutanoyl]amino]-4-carboxybutanoyl]Lys]
0.01	CC(=O)N[C@@H](CCC(=O)N[C@@H](CCC(=O)N[C@@H](CCC(=O)N[C@@H](CCC(=O)NCCCC[C@H](NC(=O)[C@H](CO)NC(=O)[C@H](CC(C)C)NC(=O)[C@H](CC(C)C)NC(=O)[C@H](Cc1c[nH]c2ccccc12)NC(=O)[C@H](CCC(N)=O)NC(=O)[C@@H](NC(=O)[C@H](Cc1ccccc1)NC(=O)[C@H](CC(=O)O)NC(=O)[C@H](CCC(N)=O)NC(=O)[C@H](C)NC(=O)[C@H](CCCNC(=N)N)NC(=O)[C@H](CCCNC(=N)N)NC(=O)[C@H](CO)NC(=O)[C@H](CC(=O)O)NC(=O)[C@H](CC(C)C)NC(=O)[C@H](Cc1ccc(O)cc1)NC(=O)[C@H](CCCCN)NC(=O)[C@H](CO)NC(=O)[C@H](Cc1ccc(O)cc1)NC(=O)[C@H](CC(=O)O)NC(=O)[C@H](CO)NC(=O)[C@@H](NC(=O)[C@H](Cc1ccccc1)NC(=O)[C@@H](NC(=O)CNC(=O)[C@H](CCC(N)=O)NC(=O)[C@H](CO)NC(=O)[C@@H](N)Cc1c[nH]cn1)[C@@H](C)O)[C@@H](C)O)C(C)C)C(=O)O)C(=O)O)C(=O)O)C(=O)O)C(=O)O [Example 52, N^ε^29-[(4S)-4-[[(4S)-4-[[(4S)-4-[[(4S)-4-acetamido-4-carboxybutanoyl]amino]-4-carboxybutanoyl]amino]-4-carboxybutanoyl]amino]-4-carboxybutanoyl]-[Leu^27,Ser^28,Lys^29]-Glucagon]

Compound	EC50 [nM]
CC(=O)N[C@@H](CCC(=O)N[C@@H](CCC(=O)N[C@@H](CCC(=O)N[C@@H](CCC(=O)NCCCC[C@H](NC(=O)[C@@H](NC(=O)[C@H](Cc1ccccc1)NC(=O)[C@H](CCC(=O)O)NC(=O)[C@H](C)NC(=O)[C@H](C)NC(=O)[C@H](CCCNC(=N)N)NC(=O)[C@H](CCCNC(=N)N)NC(=O)[C@@H](NC(=O)[C@H](CC(=O)O)NC(=O)[C@H](CC(C)C)NC(=O)[C@H](Cc1ccc(O)cc1)NC(=O)[C@H](CCCCN)NC(=O)[C@H](CO)NC(=O)[C@H](Cc1ccc(O)cc1)NC(=O)[C@H](CC(=O)O)NC(=O)[C@H](CO)NC(=O)[C@@H](NC(=O)[C@H](Cc1ccccc1)NC(=O)[C@@H](NC(=O)CNC(=O)[C@H](Cc1c[nH]cn1)NC(=O)CNC(=O)[C@@H](N)Cc1c[nH]cn1)[C@@H](C)O)[C@@H](C)O)C(C)C)C(C)C)C(=O)N[C@@H](Cc1c[nH]c2ccccc12)C(=O)N[C@@H](CC(C)C)C(=O)N[C@@H](CC(C)C)C(=O)N[C@@H](CO)C(=O)N[C@H](C(=O)O)[C@@H](C)O)C(=O)O)C(=O)O)C(=O)O)C(=O)O [Example 46, N^ε24-[(4S)-4-[[(4S)-4-[[(4S)-4-[[(4S)-4-acetamido-4-carboxybutanoyl]amino]-4-carboxybutanoyl]amino]-4-carboxybutanoyl]amino]-4-carboxybutanoyl]-[Gly^2,His^3,Val^16,Ala^2°,Glu^21,Lys^24,Leu^27,Ser^28]-Glucagon] (H-HGHGTFTSDYSKYLDVRRAAEFVK([γGlu-γGlu-γGlu-γGlu-Ac])WLLST-OH)	0.024
